For one data set, the system named is BT-474. Kind of data set: Antiproliferative activity against human BT-474 cells assessed as inhibition of cell viability at 10 uM measured after 72 hrs by CellTiter 96 Aqueous One Solution Cell Proliferation Assay. Format: functional, cell-based.
The subject of the next data set is HEK293. Kind of data set: Cytotoxicity against HEK293 cells assessed as reduction in cell viability at 10 uM measured after 72 hrs by CellTiter 96 Aqueous One Solution Cell Proliferation Assay. The settings on record: human, hek293, 72 h. Format: toxicity, cell-based.
The next data set concerns JIMT-1. The data set can be described thus: Antiproliferative activity against human JIMT-1 cells assessed as inhibition of cell viability at 10 uM measured after 72 hrs by CellTiter 96 Aqueous One Solution Cell Proliferation Assay. The data set is classed as functional, cell-based.

Active and inactive are the calls of the source. The calls are words filed in the database; no cut-off is given here.

Consider `COCCn1cc(NC(=O)c2ccc3c(c2OC)C=CC(C)(C)O3)c2cccnc21`, for which the result in the data set with BT-474 and with JIMT-1 was Active. Also, in the data set on HEK293, the Activity entry was “Toxic”.
